Data set [1] has as its target T1, GLUT2 (Homo sapiens, UniProt P11168).
T1 sequence (P11168 1-524): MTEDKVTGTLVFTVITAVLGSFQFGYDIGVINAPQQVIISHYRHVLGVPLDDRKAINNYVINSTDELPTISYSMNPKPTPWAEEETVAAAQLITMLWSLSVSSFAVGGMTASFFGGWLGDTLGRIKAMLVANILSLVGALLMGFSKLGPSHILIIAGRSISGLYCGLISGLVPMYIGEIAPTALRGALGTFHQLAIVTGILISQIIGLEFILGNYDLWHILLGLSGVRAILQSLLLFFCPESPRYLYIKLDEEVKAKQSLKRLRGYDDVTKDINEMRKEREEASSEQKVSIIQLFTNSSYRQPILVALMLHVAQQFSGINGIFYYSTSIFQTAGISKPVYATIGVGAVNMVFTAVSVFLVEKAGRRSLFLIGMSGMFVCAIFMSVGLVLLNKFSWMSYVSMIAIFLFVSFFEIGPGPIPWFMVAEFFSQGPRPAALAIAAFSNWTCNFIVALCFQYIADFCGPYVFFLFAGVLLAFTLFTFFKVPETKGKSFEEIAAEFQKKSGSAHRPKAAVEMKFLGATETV
As to conditions: aspalathin 100 µM; 100 µM phloretin (GLUT2).

The nature of data set [2]: Extended Clearance Classification System (ECCS) classification. As to conditions: weak acid, molecular weight higher than 400 g/mol.
Data set [3] relates to intestinal epithelium. Further details: method as in earlier work. The following applies: ref 37 Huang et al., cited from earlier work.
Data set [4] in a line: Kinetic solubility assay (miniaturised shake flask). The data set is classed as physicochemical. As to conditions: 2 h, 25 °C, 2% DMSO. The protocol: The kinetic solubility assay was performed using a miniaturised shake flask method. A 10 mM stock solution of aspalathin was used to prepare calibration standards (10–220 µM) in dimethyl sulphoxide (DMSO), and to spike (1:50) duplicate aqueous samples of phosphate buffered saline (pH 6.5), 0.01 M HCl (pH 2), and FaSSIF (pH 6.5), with a final DMSO concentration of 2%. After shaking for 2 h at 25 °C, the solutions were filtered (multiscreen filter plates, 0.45 µm low-binding, hydrophilic polytetrafluoroethylene (PTFE), Merck) and analysed by means of HPLC-DAD (Agilent 1200 Rapid Resolution HPLC; Agilent Technologies, Inc., Santa Clara, CA, USA). Best fit calibration curves were constructed using the calibration standards, which were used to determine the solubility of the aqueous samples [43].

Read-outs that look alike come from different tables or passages of the source. Marks after values point to notes of the source that are not given here.

As to `O=C(CCc1ccc(O)c(O)c1)c1c(O)cc(O)c([C@@H]2O[C@H](CO)[C@@H](O)[C@H](O)[C@H]2O)c1O` [Aspalathin], in data set [1], the “Papp a-b + Inhibitor (phloretin)” value is 1.67 ± 0.43 ^c ×10^−6 cm/s and the “Papp b-a + Inhibitor (phloretin)” value is 1.95 ± 1.1 ^c ×10^−6 cm/s. In data set [2], this molecule yielded an ECCS class of 3B. Moreover, in data set [3] (equal concentration of pure aspalathin), the “transport of aspalathin (Papp)” value is 2.48 ± 0.03 × 10^−6 cm/s. For the same molecule, in data set [3] (from a green rooibos extract solution), the “transport of aspalathin (Papp)” value was 3.49 ± 1.45 × 10^−6 cm/s. In addition, in data set [4] (0.01 M HCl (pH 2)), the “Kinetic solubility at pH 2” value is listed as 153 µM. Further, the “Kinetic solubility in FaSSIF at pH 6.5” value in data set [4] (FaSSIF (pH 6.5)) was found to be 119 µM. Further, in data set [4] (phosphate buffered saline (pH 6.5)), the “Kinetic solubility at pH 6.5” value is recorded as 123 µM.

Source of the values: PMC6154319, “Intestinal Transport Characteristics and Metabolism of C-Glucosyl Dihydrochalcone, Aspalathin” (Molecules : A Journal of Synthetic Chemistry and Natural …, 2017).
